Assay: In vitro percutaneous absorption of Tempol after multiple applications of Formulation V, Franz static diffusion cells, 30-minute exposures (Example II)
Assay type: in vitro ADME, human
Conditions: test 3, three applications, result in words
Procedure: The skin was wiped with two dry cotton swabs after each application. Upon completion of the final application and skin wiping, the stratum corneum was removed from the skin. […] Franz static diffusion cells (15 mm diameter orifice, O-ring joint, Crown Bio Scientific, Clinton, N.J.) were mounted on 9-cell manifolds and maintained at a constant temperature of 32° C. by use of re-circulating water baths. […] Each diffusion cell was assembled by placing the excised human abdominal skin from a single donor dermal-side down and then a Teflon® O-ring (which rested in the groove of the donor side, top half, of the diffusion cell. The donor side (top half) of the diffusion cell was then placed on top of the O-ring resting on the skin and held in place by use of a pinch clamp. The joint between the donor and receptor compartments of each cell was wrapped with Parafilm® to prevent evaporation of the receptor solution. […] Air bubbles were dispelled from under the skin. […] The formulation was applied in an alternating fashion to 6 diffusion cells at 0.18 mL of formulation per cell. The diffusion cell sampling port was sealed with […] ® to prevent evaporation. […] If appropriate, the cell was re-dosed with test formulation after removal of the previous dose using two cotton swabs wiped across the skin surface. […]

Q: Which “third application levels versus levels in the second time point” value does the source give for `CC1(C)CC(O)CC(C)(C)N1[O]` [Tempol, 4-hydroxy-2,2,6,6-tetramethylpiperidine-1-oxyl] here?
A: twice as high

— patent US7625928B2, “Nitroxide radioprotector formulations and methods of use” (priority 2002, dated 2009)
